What was measured:
Settings in all cases: 72 h
Caco-2 [1] = assay: cell viability relative to DMSO; higher = less toxic
Calu-3 [2] = assay: as above
HepG2 [3] = assay: as above
U2OS [4] = assay: as above
Vero E6 [5] = assay: as above
Calu-3 [6] = assay: relative viability EC50 (midpoint between 100% and the lowest measured viability); higher = less toxic
HepG2 [7] = assay: as above
U2OS [8] = assay: as above
Vero E6 [9] = assay: as above
Caco-2 [10] = assay: drug sensitivity score (DSS) for viability; higher = more toxic; extreme values may be limits of the assay
Calu-3 [11] = assay: as above
HepG2 [12] = assay: as above
U2OS [13] = assay: as above
Vero E6 [14] = assay: as above
Caco-2 [15] = assay: relative viability EC50 (midpoint between 100% and the lowest measured viability); higher = less toxic

Row | SMILES | cell viability (Caco-2 [1]; 1 nM) | cell viability (Caco-2 [1]; 10 nM) | cell viability (Caco-2 [1]; 100 nM) | cell viability (Caco-2 [1]; 1000 nM) | cell viability (Caco-2 [1]; 10000 nM) | cell viability (Calu-3 [2]; 1 nM) | cell viability (Calu-3 [2]; 10 nM) | cell viability (Calu-3 [2]; 100 nM) | cell viability (Calu-3 [2]; 1000 nM) | cell viability (Calu-3 [2]; 10000 nM) | cell viability (HepG2 [3]; 1 nM) | cell viability (HepG2 [3]; 10 nM) | cell viability (HepG2 [3]; 100 nM) | cell viability (HepG2 [3]; 1000 nM) | cell viability (HepG2 [3]; 10000 nM) | cell viability (U2OS [4]; 1 nM) | cell viability (U2OS [4]; 10 nM) | cell viability (U2OS [4]; 100 nM) | cell viability (U2OS [4]; 1000 nM) | cell viability (U2OS [4]; 10000 nM) | cell viability (Vero E6 [5]; 1 nM) | cell viability (Vero E6 [5]; 10 nM) | cell viability (Vero E6 [5]; 100 nM) | cell viability (Vero E6 [5]; 1000 nM) | cell viability (Vero E6 [5]; 10000 nM) | relative viability EC50 (Calu-3 [6]) | relative viability EC50 (HepG2 [7]) | relative viability EC50 (U2OS [8]) | relative viability EC50 (Vero E6 [9]) | drug sensitivity score (Caco-2 [10]) | drug sensitivity score (Calu-3 [11]) | drug sensitivity score (HepG2 [12]) | drug sensitivity score (U2OS [13]) | drug sensitivity score (Vero E6 [14]) | relative viability EC50 (Caco-2 [15])
1 | CC(C)=CCC/C(C)=C/CNCCNC1C2CC3CC(C2)CC1C3 (stereo unspecified) [SQ-109] | 92.5% | 107% | 81.7% | 90.6% | 74.2% | 94.2% | 111% | 106% | 106% | 94% | 94.3% | 103% | 110% | 103% | 86.3% | 102% | 104% | 99.5% | 103% | 93.6% | 103% | 95.8% | 105% | 102% | 88.8% | > 10 µM | > 10 µM | > 10 µM | > 10 µM | 2.4 | 0 | 0.1 | 0 | 0 | 
2 | COc1ccc(C(=O)CC2(O)C(=O)Nc3c(Cl)ccc(Cl)c32)cc1 (stereo unspecified) [YK-4-279] | 105% | 93.1% | 103% | 93.3% | 63.8% | 103% | 93.2% | 101% | 106% | 76.4% | 106% | 108% | 99.1% | 94.5% | 34.9% | 104% | 97.8% | 106% | 95.6% | 45.7% | 108% | 102% | 102% | 102% | 48.1% | > 10 µM | 2.47 µM | 2.5 µM | 3.34 µM | 2.8 | 0.6 | 4.4 | 3.6 | 2.6 | 
3 | NCCCNCCSP(=O)(O)O [amifostine] | 88.8% | 100% | 86.4% | 100% | 92.7% | 95.8% | 101% | 101% | 100% | 98% | 103% | 100% | 96.6% | 93% | 98.2% |  |  |  |  |  | 104% | 108% | 106% | 97.3% | 102% | > 10 µM | > 10 µM |  | > 10 µM | 0 | 0 | 0 |  | 0 | > 10 µM
4 | CCOC(=O)Nc1cc(-c2ccc(C)c(NS(C)(=O)=O)c2)nn2c(C)nnc12 [bromosporine] | 95.5% | 101% | 104% | 81.3% | 55.8% | 96.8% | 88% | 80.4% | 76.3% | 37.8% | 101% | 98.9% | 102% | 60.8% | 19.5% | 96.2% | 99.2% | 91.5% | 79.2% | 18.5% | 95.7% | 101% | 94.7% | 55.5% | 6.3% | 0.624 µM | 1.02 µM | 1.57 µM | 1.05 µM | 4.8 | 7.9 | 9.4 | 7.6 | 10.4 | 
5 | CCCCN(CCCC)CCCOC(=O)c1ccc(N)cc1 [butacaine] | 92.7% | 98.5% | 91.3% | 128% | 65.7% | 95.9% | 95.3% | 106% | 86.8% | 94.9% | 108% | 93% | 102% | 85.2% | 95.7% | 92.5% | 99.3% | 95.1% | 102% | 101% | 102% | 90.8% | 99.1% | 92.9% | 92.7% | > 10 µM | > 10 µM | > 10 µM | > 10 µM | 0.9 | 0 | 0 | 0 | 0 | 
6 | CN1CCN(C(c2ccccc2)c2ccc(Cl)cc2)CC1 (stereo unspecified) [chlorcyclizine] | 107% | 104% | 79.4% | 105% | 71.7% | 102% | 103% | 96.4% | 98.3% | 88.1% | 97.6% | 90.4% | 95.8% | 91.7% | 87.9% | 93.8% | 103% | 99% | 106% | 88.8% | 105% | 97.3% | 103% | 101% | 92.6% | > 10 µM | > 10 µM | > 10 µM | > 10 µM | 0.9 | 0.1 | 0 | 0 | 0 | 
7 | N#Cc1ccc(Oc2ccc3c(c2)COB3O)cc1 [crisaborole] | 104% | 104% | 107% | 98.8% | 101% | 89.8% | 94.6% | 96.7% | 94.3% | 108% | 106% | 105% | 112% | 104% | 95.8% |  |  |  |  |  | 103% | 105% | 101% | 102% | 98.1% | > 10 µM | > 10 µM |  | > 10 µM | 0 | 0 | 0 |  | 0 | > 10 µM
8 | Cc1cccc(C(=O)O)c1O [hydroxytoluic-acid] |  |  |  |  |  |  |  |  |  |  | 90.6% | 93.6% | 87.1% | 88.5% | 104% | 96.8% | 99.3% | 102% | 108% | 104% | 108% | 104% | 104% | 105% | 99% |  | > 10 µM | > 10 µM | > 10 µM |  |  | 0 | 0 | 0 | 
9 | CCNCCS(=O)(=O)NC[C@@]1(c2ccccc2)SC(NC(=O)C(C)(C)C)=NN1C(=O)C(C)(C)C [litronesib] | 98.1% | 91% | 62.9% | 67.9% | 62.2% | 95.1% | 91.9% | 87% | 84.3% | 81.2% | 89.4% | 72.9% | 35.9% | 34.7% | 33.6% | 104% | 96% | 58% | 49.7% | 44.8% | 97% | 107% | 82.9% | 38.8% | 41.9% | > 10 µM | 0.0119 µM | 0.0488 µM | 0.146 µM | 12.7 | 2.8 | 23.3 | 15.5 | 13.9 | 
10 | COc1ccc2[nH]cc(CCNC(C)=O)c2c1 [melatonin] | 107% | 88.8% | 101% | 102% | 99.5% | 101% | 105% | 96.8% | 109% | 105% |  |  |  |  |  |  |  |  |  |  |  |  |  |  |  | > 10 µM |  |  |  | 0 | 0 |  |  |  | > 10 µM
11 | O=S(=O)(O)CCS [mesna] | 114% | 102% | 104% | 97.2% | 104% | 98.4% | 91.8% | 104% | 95.9% | 103% |  |  |  |  |  |  |  |  |  |  | 103% | 102% | 107% | 98.5% | 101% | > 10 µM |  |  | > 10 µM | 0 | 0 |  |  | 0 | > 10 µM
12 | COc1ccc(OC)c([C@@H](O)CNC(=O)CN)c1 [midodrine] |  |  |  |  |  | 89.1% | 98.7% | 95.7% | 95.6% | 98.3% | 109% | 102% | 118% | 99.1% | 109% | 99.1% | 104% | 100% | 106% | 105% | 102% | 97.8% | 106% | 95.8% | 108% | > 10 µM | > 10 µM | > 10 µM | > 10 µM |  | 0 | 0 | 0 | 0 | 
13 | CCOC(=O)CC(=O)N1CCSC1COc1ccccc1OC (stereo unspecified) [moguisteine] | 98.6% | 98.3% | 96.3% | 105% | 98.4% | 99.2% | 103% | 99.3% | 97.6% | 92.8% | 93.7% | 97% | 99.2% | 112% | 104% |  |  |  |  |  | 99.7% | 101% | 100% | 105% | 105% | > 10 µM | > 10 µM |  | > 10 µM | 0 | 0 | 0 |  | 0 | > 10 µM
14 | Cc1cn(-c2cc(NC(=O)c3ccc(C)c(Nc4nccc(-c5cccnc5)n4)c3)cc(C(F)(F)F)c2)cn1 [nilotinib] | 101% | 114% | 97.9% | 106% | 88.1% | 98.8% | 106% | 111% | 90.1% | 100% |  |  |  |  |  |  |  |  |  |  | 107% | 98.2% | 103% | 103% | 106% | > 10 µM |  |  | > 10 µM | 0 | 0 |  |  | 0 | > 10 µM
15 | CC(C)=CCC/C(C)=C/CC/C(C)=C/C=C/C(C)=C/C(=O)O [peretinoin] | 104% | 98.9% | 101% | 97.9% | 102% | 107% | 104% | 105% | 114% | 97.6% | 101% | 94.3% | 90.9% | 103% | 104% |  |  |  |  |  | 101% | 96.1% | 106% | 93.3% | 104% | > 10 µM | > 10 µM |  | > 10 µM | 0 | 0 | 0 |  | 0 | > 10 µM
16 | Cc1cc(-c2nc3cc(F)ccc3s2)ccc1NC(=O)[C@@H](N)CCCCN [phortress] | 100% | 100% | 93.3% | 92.2% | 73.5% | 102% | 99.9% | 97.6% | 91.3% | 79.9% | 95.6% | 107% | 86.3% | 3.3% | 1.6% | 97.9% | 93.9% | 97.5% | 95.2% | 93.6% | 92.3% | 95.8% | 94.4% | 97.2% | 107% | > 10 µM | 0.208 µM | > 10 µM | > 10 µM | 1.6 | 1.1 | 20 | 0 | 0 | 
17 | COc1cc(NS(=O)(=O)c2ccc(N)cc2)nc(OC)n1 [sulphadimethoxine] | 109% | 99.9% | 103% | 100% | 99.9% | 103% | 90.3% | 91.8% | 98.9% | 94% | 106% | 108% | 122% | 98.9% | 105% |  |  |  |  |  | 100% | 97.8% | 98.8% | 103% | 97.5% | > 10 µM | > 10 µM |  | > 10 µM | 0 | 0 | 0 |  | 0 | > 10 µM
18 | S=P(N1CC1)(N1CC1)N1CC1 [thiotepa] | 94.7% | 101% | 94.8% | 98.5% | 91.1% | 91.8% | 95.7% | 97.5% | 90.2% | 89.5% | 104% | 96.6% | 102% | 100% | 107% |  |  |  |  |  | 108% | 98.9% | 106% | 97.3% | 102% | > 10 µM | > 10 µM |  | > 10 µM | 0 | 0 | 0 |  | 0 | > 10 µM
